Source: patent US6770624B2, “Treatment of heart failure with growth hormone” (The Regents of the University of California, priority 1997, dated 2004)

Assays:
[1] = tested on: normal rats; assay: Body, organ and cardiac weights in normal rats after AT1 blockade and GH; type: in vivo, rat; conditions: mean ± SD, n=8
Description: Normal Rats: Normal female Sprague Dawley rats (240-260 g each) were randomized to one of the following four groups: rats receiving placebo for 6 weeks (Control group, n=8); rats treated with placebo for 6 weeks with concomitant rhGH (2 mg/kg bid) for the final 2 weeks (GH group, n=8); rats treated with relatively low-dose losartan (L) (20 mg/kg/day in drinking water) for 6 weeks with concomitant rhGH (2 mg/kg/bid, SC) during the final 2 weeks (LowL+GH, n=8); and rats treated with high dose L (2 g/L in drinking water) for 6 weeks with concomitant rhGH (2 mg/kg/bid, SC) during the final 2 weeks (HighL+GH, n=8). In these 32 animals, the responses of body weight (BW) and the weights of the heart and other selected organs were then examined.
After the hemodynamic measurements, the rats were euthanized and wet weights of heart and other selected organs, including liver, spleen, and kidney, were measured. Cardiac fixation was then performed as described by R. L. Duerr (1996) supra. In brief, polyethylene catheters were introduced into the LV apex and the descending aorta. The LV chamber was filled from a reservoir and maintained at 10 mmHg. After washout of blood from the coronary arteries with heparinized saline, the myocardium was perfused retrogradely from the aorta with 10% buffered formalin at a constant pressure of 60 mmHg for 20 minutes. The heart was then excised and immersed in 10% formalin for 24 hours. Subsequently, the atria and adhesions were dissected away and the right ventricle (RV) and LV were separated and weighted, the interventricular septum being included with the LV. The right tibia was dissected and its length from the condyles to the tip of the medial malleolus was measured with a micrometer caliper by the method of Yin et al., Am J Physiol (1982); 243. To compare heart weights among groups, the weights were normalized by tibial length (TL) as well as by body weight (BW).

[2] = tested on: AT1 receptor; assay: Angiotensin II dose-response curves for changes in carotid arterial pressure (confirmation of AT1 receptor blockade); type: in vivo, rat; conditions: losartan 2 g/L in drinking water for 2 weeks; normal rats and rats with chronic MI
Description: In order to confirm AT1 receptor blockade with losartan, angiotensin II dose-response curves for changes in carotid arterial pressure were carried out in an additional 14 female Sprague-Dawley rats (260-300 g/each). Eight rats were normal, 4 untreated and 4 treated for 2 weeks with losartan (2 g/L in drinking water). In 6 rats a large MI was produced 3 to 4 weeks prior to study, of which 3 received losartan (2 g/L in drinking water) for 2 weeks and 3 were untreated.

Compound | BW (body weight) ([1]; 6 weeks, rhGH final 2 weeks) [g] | Kidney weight ([1]; 6 weeks, rhGH final 2 weeks) [g] | Liver weight ([1]; 6 weeks, rhGH final 2 weeks) [g] | Spleen weight ([1]; 6 weeks, rhGH final 2 weeks) [g] | TL (tibia length) ([1]; 6 weeks, rhGH final 2 weeks) [cm] | HW/BW [1] [%] | LV/BW [1] [%] | RV/BW [1] [%] | LV wt ([1]; measured after fixation) [g] | RV wt ([1]; measured after fixation) [g] | HW (heart weight) ([1]; measured before fixation) [g] | shift of angiotensin II-blood pressure dose-response curves [2]
GH: recombinant human growth hormone; placebo 6 weeks with rhGH 2 mg/kg bid for the final 2 weeks | 319.9 ± 15.9 | 2.30 ± 0.19 | 13.69 ± 0.94 | 1.21 ± 0.10 | 4.05 ± 0.08 | 0.45 ± 0.04 | 0.33 ± 0.01 | 0.08 ± 0.01 | 1.04 ± 0.06 | 0.26 ± 0.02 | 1.42 ± 0.12 | 
CCCCc1nc(Cl)c(CO)n1Cc1ccc(-c2ccccc2-c2nn[nH]n2)cc1 [Losartan, losartan] |  |  |  |  |  |  |  |  |  |  |  | marked rightward shifts
